Reference: patent US5217975A (priority 1989, dated 1993)
Like-named read-outs stand apart in the source and are kept apart here.

Tests used:
muscarinic receptors [1] = experiment: Radioligand binding: displacement of muscarinic agonist 3H-Oxotremorine-M (3H-OXO-M), rat cerebral cortex; design: species or system Hooded Lister rats; details: displacement of 2 nM 3H-OXO-M, 2 mM magnesium chloride, 37° C., 30 min
muscarinic receptors [2] = format: binding, Hooded Lister rats; details: displacement of 0.27 nM 3H-QNB, rat cerebral cortex, 37° C., 30 min

For `Cn1nnc([C@H]2CN3CC[C@@H]2C3)n1` (relative stereo) [Example E6, (±) endo-3-(2-Methyltetrazol-5-yl)-1-azabicyclo-[2.2.1]heptane], the IC50 (muscarinic receptors [1]) was 324 nM and the IC50 (muscarinic receptors [2]) was 40000 nM.

`Cn1nnc(C23CCN(CC2)C3)n1` [Example E8, 4-(2-Methyltetrazol-5-yl)-1-azabicyclo2.2.11 heptane] showed an IC50 (muscarinic receptors [1]) of 250 nM and an IC50 (muscarinic receptors [2]) of 56000 nM.

Molecule `Cn1nncc1C1CN2CCC1CC2` (racemic) [Example E13] has an IC50 (muscarinic receptors [1]) of 750 nM and an IC50 (muscarinic receptors [2]) of 38000 nM.

With `Cn1ncc([C@@H]2CN3CC[C@@H]2C3)n1` (relative stereo) [Example E14, (±) exo-3-(2-Methyl-1,2,3-triazol-4-y1)-1-azabicyclo 2.2.1]heptane] the IC50 (muscarinic receptors [1]) was 5.6 nM and the IC50 (muscarinic receptors [2]) was 5700 nM.

Molecule `CCn1ncc([C@@H]2CN3CC[C@@H]2C3)n1` (relative stereo) [Example E19, (±) exo-3-(2-Ethyl-1.2.3-triazol-4-yl)-1-azabicyclo [2.2.1]heptane] has an IC50 (muscarinic receptors [1]) of 540 nM and an IC50 (muscarinic receptors [2]) of 2200 nM.

`Cn1ncc([C@H]2CN3CC[C@@H]2C3)n1` (relative stereo) [Example E15, (±) endo-3-(2-Methyl-1,2,3-triazol-4-yl)-1-azabicyclo [2.2.1]heptane] showed an IC50 (muscarinic receptors [1]) of 10.5 nM and an IC50 (muscarinic receptors [2]) of 18500 nM.

Molecule `Cn1nnc(C2CN3CCC2CC3)n1` (racemic) [Example E2, (±) 3-(2-Methyltetrazol-5-yl)-1-azabicyclo[2.2.2]octane] has an IC50 (muscarinic receptors [1]) of 230 nM and an IC50 (muscarinic receptors [2]) of 5700 nM.

For `Cn1ncc(C2CN3CCC2CC3)n1` (racemic) [Example E11], the IC50 (muscarinic receptors [1]) was 56 nM and the IC50 (muscarinic receptors [2]) was 6550 nM.

In the case of `Cn1ncc(C23CCCN(CC2)C3)n1` (racemic) [Example E1, (±) 5-(2-Methyl-1,2,3-triazol-4-yl)-1-azabicyclo-[3.2.1]octane], the IC50 (muscarinic receptors [1]) is reported as 14.2 nM and the IC50 (muscarinic receptors [2]) is reported as 3000 nM.

`CCn1nnc(C2CN3CCC2CC3)n1` (racemic) [Example E9, (±) 3-(2-Ethyltetrazol-5-yl)-1-azabicyclo[2.2.2]octane] gave an IC50 (muscarinic receptors [1]) of 1000 nM and an IC50 (muscarinic receptors [2]) of 8300 nM.

`Cn1nnc([C@@H]2CN3CC[C@@H]2C3)n1` (relative stereo) [Example E4, (±) exo-3-(2-Methyltetrazol-5-yl)-1-azabicyclo-[2.2.1]heptane] showed an IC50 (muscarinic receptors [1]) of 11.5 nM and an IC50 (muscarinic receptors [2]) of 3700 nM.

`CCn1ncc(C23CCN(CC2)C3)n1` [Example E16] showed an IC50 (muscarinic receptors [1]) of 440 nM and an IC50 (muscarinic receptors [2]) of 15800 nM.

`CCn1nnc([C@@H]2CN3CC[C@@H]2C3)n1` (relative stereo) [Example E18, (±) exo-3-(2-Ethyltetrazol-5-yl)-1-azabicyclo[2.2.1]heptane] showed an IC50 (muscarinic receptors [1]) of 400 nM and an IC50 (muscarinic receptors [2]) of 5500 nM.

With `Cn1nnc(C23CCCN(CC2)C3)n1` (racemic) [Example E3, (±) 5-(2-Methyltetrazol-5-yl)-1-azabicyclo[3.2.1]octane] the IC50 (muscarinic receptors [1]) was 100 nM and the IC50 (muscarinic receptors [2]) was 8200 nM.

Molecule `Cn1nnnc1[C@@H]1CN2CC[C@@H]1C2` (relative stereo) [Example E5, (±) exo-3-(1-Methyltetrazol-5-yl)-1-azabicyclo-[2.2.1]heptane] has an IC50 (muscarinic receptors [1]) of 349 nM and an IC50 (muscarinic receptors [2]) of 95000 nM.

`Cn1ncc(C23CCN(CC2)C3)n1` [Example E10, 4-(2-Methyl-1,2,3-triazol-4-yl)-1-azabicyclo[2.2.1]-heptane] was tested, and the IC50 (muscarinic receptors [1]) was 32 nM and the IC50 (muscarinic receptors [2]) was 20000 nM.
